{"source": "patent US20070219243A1", "about": "“Method for improving the pharmacokinetics of HIV integrase inhibitors” (priority 2005, published 2007)", "key": {"CYP3A (hepatic)": {"system": "CYP3A (hepatic)", "assay": "Example 3: IV midazolam probe for CYP3A activity at a range of RTV doses", "conditions": "human, plasma, iv, probe midazolam; for AUC(0-inf): AUCinf (mean); for clearance: CL (mean); for half-life: Half-life (mean)", "description": "(§1) The effects of a range of RTV doses (20, 50, 100, and 200 mg once daily) on hepatic cytochrome P450 3A (CYP3A) activity were also evaluated using a CYP3A substrate.\n(§2) For MDZ: AUC0-last, AUCinf, % AUCexp, Clast, Tlast, λ, T1/2, CL and Vz.\n(§3) The population mean slope was estimated along with a corresponding 90% CI. This study was performed in compliance with the guidelines of Good Clinical Practices (GCPs)."}, "[1]": {"system": "hepatic cytochrome P450 3A (CYP3A) activity", "assay": "Example 3: IV midazolam probe for CYP3A activity at a range of RTV doses", "description": "as §1, §2, §3"}, "[2]": {"conditions": "both, human, in vivo"}, "[3]": {"assay": "Example 1: pharmacokinetics of Compound 1 alone and with RTV in healthy subjects", "format": "in vivo, human", "source_text": "The study was an open-label, fixed-sequence, crossover, pharmacokinetic study with 12 subjects. The subjects were healthy males and non-pregnant, nonlactating females between 18 and 45 years of age, inclusive. The duration of the study was 20 days, with Period 1 of Days 1 to 10 and Period 2 of days 11 to 20. Follow-up contact was on day 27."}, "[4]": {"assay": "Example 3: pharmacokinetics of Compound 1 and RTV at a range of RTV doses", "conditions": "RTV in plasma, mean (CV %); for AUC / Cmax / half-life: both, human; for AUC: AUCtau"}, "[5]": {"assay": "Example 5: safety of zidovudine and Compound 1/r", "format": "in vivo, human", "source_text": "(§4) Zidovudine is a NRTI used in HIV patients.\n(§5) PK parameters were estimated using WinNonlin™ 5.0.1 (Pharsight Corporation, Mountain View, Calif., USA)."}, "[6]": {"assay": "Example 5: drug-drug interaction of zidovudine and Compound 1/r", "source_text": "as §4, §5"}, "[7]": {"conditions": "plasma, oral, Compound 1 125 mg + 20 mg RTV QD"}, "[8]": {"conditions": "plasma, oral, Compound 1 125 mg + 50 mg RTV QD"}, "[9]": {"conditions": "plasma, oral, Compound 1 125 mg + 200 mg RTV QD"}}, "data": [{"smiles": "Cc1ncc2n1-c1ccc(Cl)cc1C(c1ccccc1F)=NC2", "note": "[MDZ, midazolam]", "values": [{"measurement": "AUC(0-inf)", "setting": "CYP3A (hepatic); 1 mg, MDZ 1 mg IV alone, Day 1", "result": 31, "unit": "ng·h/mL"}, {"measurement": "clearance", "setting": "CYP3A (hepatic); 1 mg, MDZ 1 mg IV alone", "result": 7.45, "unit": "mL/min/kg"}, {"measurement": "half-life", "setting": "CYP3A (hepatic); 1 mg, MDZ 1 mg IV alone", "result": 238, "unit": "min"}, {"measurement": "AUC(0-inf)", "setting": "CYP3A (hepatic); MDZ 1 mg IV, +20 mg RTV QD (with Compound 1 125 mg)", "result": 101, "unit": "ng·h/mL"}, {"measurement": "AUC(0-inf)", "setting": "CYP3A (hepatic); MDZ 1 mg IV, +50 mg RTV QD (with Compound 1 125 mg)", "result": 145, "unit": "ng·h/mL"}, {"measurement": "AUC(0-inf)", "setting": "CYP3A (hepatic); MDZ 1 mg IV, +100 mg RTV QD (with Compound 1 125 mg)", "result": 219, "unit": "ng·h/mL"}, {"measurement": "AUC(0-inf)", "setting": "CYP3A (hepatic); MDZ 1 mg IV, +200 mg RTV QD (with Compound 1 125 mg)", "result": 146, "unit": "ng·h/mL"}, {"measurement": "clearance", "setting": "CYP3A (hepatic); MDZ 1 mg IV, +20 mg RTV", "result": 2.38, "unit": "mL/min/kg"}, {"measurement": "clearance", "setting": "CYP3A (hepatic); MDZ 1 mg IV, +50 mg RTV", "result": 1.5, "unit": "mL/min/kg"}, {"measurement": "clearance", "setting": "CYP3A (hepatic); MDZ 1 mg IV, +100 mg RTV", "result": 1.2, "unit": "mL/min/kg"}, {"measurement": "clearance", "setting": "CYP3A (hepatic); MDZ 1 mg IV, +200 mg RTV", "result": 1.45, "unit": "mL/min/kg"}, {"measurement": "half-life", "setting": "CYP3A (hepatic); MDZ 1 mg IV, +20 mg RTV", "result": 470, "unit": "min"}, {"measurement": "half-life", "setting": "CYP3A (hepatic); MDZ 1 mg IV, +50 mg RTV", "result": 864, "unit": "min"}, {"measurement": "half-life", "setting": "CYP3A (hepatic); MDZ 1 mg IV, +100 mg RTV", "result": 1340, "unit": "min"}, {"measurement": "half-life", "setting": "CYP3A (hepatic); MDZ 1 mg IV, +200 mg RTV", "result": 912, "unit": "min"}, {"measurement": "Clast (mean)", "setting": "[1]; MDZ 1 mg IV alone", "result": 0.20, "unit": "ng/mL"}, {"measurement": "Clast (mean)", "setting": "[1]; MDZ 1 mg IV, +20 mg RTV", "result": 1.53, "unit": "ng/mL"}, {"measurement": "Clast (mean)", "setting": "[1]; MDZ 1 mg IV, +50 mg RTV", "result": 2.51, "unit": "ng/mL"}, {"measurement": "Clast (mean)", "setting": "[1]; MDZ 1 mg IV, +100 mg RTV", "result": 3.34, "unit": "ng/mL"}, {"measurement": "Clast (mean)", "setting": "[1]; MDZ 1 mg IV, +200 mg RTV", "result": 2.58, "unit": "ng/mL"}]}, {"smiles": "CC(C)c1nc(CN(C)C(=O)N[C@H](C(=O)N[C@@H](Cc2ccccc2)C[C@H](O)[C@H](Cc2ccccc2)NC(=O)OCc2cncs2)C(C)C)cs1", "note": "[Ritonavir, (2S,3S,5S)-5-(N-(N-((N-Methyl-N-((2-isopropyl-4-thiazolyl)methyl)amino)-carbonyl)-L-valinyl)amino)-2-(N-((5-thiazolyl)methoxycarbonyl)amino)-1,6-diphenyl-3-hydroxyhexane, reference compound]", "values": [{"measurement": "Dose proportionality of RTV exposures", "setting": "[2]", "result": "RTV exposures not dose-proportional, very low exposures at 20 mg with BLQ concentrations (<0.5 ng/ml) by 16 hr in some subjects"}, {"measurement": "half-life", "setting": "[3]; both sexes, human, plasma, oral, 100 mg, ritonavir in plasma, Day 11, single dose RTV 100 mg with Compound 1, median", "result": 306, "unit": "min"}, {"measurement": "AUC(0-inf)", "setting": "[3]; both sexes, human, plasma, oral, 100 mg, read-out: AUC (AUCinf)", "result": 4980, "unit": "ng·h/mL"}, {"measurement": "AUC", "setting": "[3]; both sexes, human, plasma, oral, ritonavir in plasma, Day 20, RTV 100 mg + Compound 1 100 mg twice daily, mean, read-out: AUC (AUCtau)", "result": 9400, "unit": "ng·h/mL"}, {"measurement": "Ctau", "setting": "[3]; ritonavir in plasma, Day 11, single dose RTV 100 mg with Compound 1, mean", "result": 219.8, "unit": "ng/mL"}, {"measurement": "Ctau", "setting": "[3]; ritonavir in plasma, Day 20, RTV 100 mg + Compound 1 100 mg twice daily, mean", "result": 544.8, "unit": "ng/mL"}, {"measurement": "Ctau", "setting": "[4]; Compound 1 125 mg + 20 mg RTV QD", "result": "0.718 (98.8) ng/ml"}, {"measurement": "Ctau", "setting": "[4]; Compound 1 125 mg + 50 mg RTV QD", "result": "11.6 (66.2) ng/ml"}, {"measurement": "Ctau", "setting": "[4]; Compound 1 125 mg + 100 mg RTV QD", "result": "53.8 (41.6) ng/ml"}, {"measurement": "Ctau", "setting": "[4]; Compound 1 125 mg + 200 mg RTV QD", "result": "78.5 (36.7) ng/ml"}, {"measurement": "AUC", "setting": "[4]; in vivo, Compound 1 125 mg + 100 mg RTV QD", "result": 6550, "unit": "ng·h/mL"}, {"measurement": "AUC", "setting": "[4]; [7]", "result": 135, "unit": "ng·h/mL"}, {"measurement": "AUC", "setting": "[4]; [8]", "result": 1120, "unit": "ng·h/mL"}, {"measurement": "AUC", "setting": "[4]; [9]", "result": 16000, "unit": "ng·h/mL"}, {"measurement": "Cmax", "setting": "[4]; [7]", "result": 19.5, "unit": "ng/mL"}, {"measurement": "Cmax", "setting": "[4]; [8]", "result": 130, "unit": "ng/mL"}, {"measurement": "Cmax", "setting": "[4]; [9]", "result": 2460, "unit": "ng/mL"}, {"measurement": "half-life", "setting": "[4]; [7]", "result": 284, "unit": "min"}, {"measurement": "half-life", "setting": "[4]; [8]", "result": 392, "unit": "min"}, {"measurement": "half-life", "setting": "[4]; plasma, oral, Compound 1 125 mg + 100 mg RTV QD", "result": 380, "unit": "min"}, {"measurement": "half-life", "setting": "[4]; [9]", "result": 343, "unit": "min"}]}, {"smiles": "Cc1cn([C@H]2C[C@H](N=[N+]=[N-])[C@@H](CO)O2)c(=O)[nH]c1=O", "note": "[ZDV, zidovudine]", "values": [{"measurement": "Tolerability", "setting": "[5]; Compound 1/r 200/100 mg QD and ZDV 300 mg BID, alone and in combination", "result": "generally well tolerated"}, {"measurement": "Safety of co-administration", "setting": "[5]; zidovudine co-administered with Compound 1/r", "result": "safe and well tolerated"}, {"measurement": "AUCtau, Cmax, Ctau (Compound 1 only) 90% CI of GMR (co-administration: alone)", "setting": "[6]; Compound 1/r 200/100 mg QD + ZDV 300 mg BID, with a meal, bounds 70% to 143%", "result": "within predefined PK equivalence bounds"}, {"measurement": "Pharmacokinetic drug-drug interaction", "setting": "[6]; in vivo", "result": "no clinically relevant pharmacokinetic drug-drug interaction"}]}]}
